According to patent publication US20250388495A1, “WATER SA[…], SYSTEM AND METHOD” (WATERCO LIMITED, priority 2020, published 2025):

What was measured:
[1] = Monitoring of H2O2 and ClO2 levels in the test tank during the efficacy test; assay type: physicochemical
From the text: An apparatus was set up to simulate swimming pool conditions and followed the Australian Pesticides and Veterinary Medicines Authority (APMVA) guidelines. A water tank filled with 180 litres of water recirculates via an ECO 100 pump (Waterco) set at low speed. A Hydrochlor® head unit (Waterco) is connected to a 13-plate low salt cell which is set to run at 100% during the test. A Digiheat unit (Waterco) is set up to control temperature during the tests. A FlowVis® valve (Waterco) was used to estimate flow rate through the apparatus. […] A Kemio™ test kit (Palintest) was used to monitor chlorine dioxide levels. A WDPHRH PER Swimming Pool controller was used to monitor pH and oxidation-reduction potential (ORP) during the tests.

[2] = Field trials: stability of chlorine dioxide in water with hydrogen peroxide; assay type: physicochemical
From the text: For example, field trials indicate that chlorine dioxide will last in water up to 5 times longer when used in conjunction with hydrogen peroxide.
The process allows chlorine dioxide to remain active in water for up to and beyond 5 days.

[3] = produced by electrolysis with hydrogen peroxide present

| Compound | effect of the spike of pathogens on the level of the sanitiser [1] | effect of ultraviolet light on chlorine dioxide residual in the water [2, 3] | time chlorine dioxide remains active in water [2, 3] | effect of agitation on chlorine dioxide levels ([2]; used in conjunction with hydrogen peroxide) | how much longer chlorine dioxide will last in water ([2]; used in conjunction with hydrogen peroxide, field trials) |
| --- | --- | --- | --- | --- | --- |
| OO [Hydrogen peroxide] | minimal | – | – | – | – |
| [O][Cl+][O-] [chlorine dioxide] | dramatically affected | does not diminish | ≥ 5 days | not affected by agitation | up to 5 times longer |
